Laboratory results: patent publication US20050250801A1, “Method of treating cancer with azaspirane compositions” (priority 2003, published 2005)
Counter-ions that a name gives are not always drawn.

Assay: Excretion of radioactivity after single oral administration to male rats, target dose 1 mg free base/kg
Type: in vivo, Sprague Dawley rats
Set-up: Excretion of Radioactivity: unit not given beside the values
Text: [^14C] N,N,-diethyl-8,8-dipropyl-2-azaspiro[4,5]decane-2-propanamine dimaleate salt, (“Compound II”) with a specific activity of 91 uCi/mg and chemical purity >99%, and non-radiolabeled dimaleate salt of N,N,-diethyl-8,8-dipropyl-2-azaspiro[4,5]decane-2-propanamine dimaleate (Compound 1) chemical purity >98%, respectively, were used in this study. The site of the radiocarbon label in Compound II is depicted by an asterisk in Formula II. The non-radiolabeled material was used for reference purposes. The radiolabeled material was stored at ca […] in the dark and the non-radiolabeled material at ca −20° C. in the dark.
Three healthy male Sprague Dawley rats (Crl:CD(SD)BR), age ca 8-9 weeks, body weights at dosing 237-255 g, were supplied by Charles River (UK) Limited. The animals were housed in holding cages suitable for this species for 8 days prior to use. SDS Rat and Mouse Maintenance Diet No. 1, (Special Diets Services, Witham Essex), and mains quality water were available ad libitum throughout. The diet and water supplied to the animals were routinely analyzed for quality and no problems were detected. Holding and study areas had automatic control of light cycle and temperature. The actual range of temperature measured during the study was 17-25° C. with relative humidity measured at 60%.
The dose was prepared for oral administration on the day of dosing. […]
For each rat, an aliquot of the dose solution was administered orally by gavage. […] For each dose, the combined weight of dose and dosing equipment were recorded prior to dosing and the discharged dosing equipment was weighed after dosing. The concentration of radioactive material in each dose solution was also determined.
Immediately following dosing, the rats were placed into all glass metabolism cages suitable for the quantitative collection of excreta and expired air. All samples were collected into individual, uniquely labeled containers.
[…] The collection containers were cooled by solid CO2 during the first 48 hours after dosing.
[…] Collection containers were cooled by solid CO2 during the first 48 hours.
At the time of each feces collection, each cage was washed with water (ca 750 mL) and the washings were retained for radioassay. During the periods 0-24 h and 24-48 hours after dosing, expired air was passed through 2 serial traps containing ethanolamine:ethoxyethaonol (3:7, v/v) in order to effect the removal of CO2. The trap solvent was sampled for radioassay at the end of each collection period.
At 168 hours post dose, each animal was killed by CO2 narcosis and cervical dislocation. Gastrointestinal tracts were removed and retained separately from the carcasses in preparation for radioassay.
All urine and feces samples were stored frozen ([…]) prior to and after analysis. Cage washes were stored at room temperature until analysis was complete and were then discarded. All carcasses and gastro-intestinal tracts were stored frozen at ca-20° C. prior to analysis.
Duplicate aliquots of urine (ca 0.3 mL) and cage washings (ca 1 mL) were dispensed, diluted to 1 mL with distilled water (if considered necessary) and mixed with Quickzint 1 scintillation fluid (10 mL; Zinsser Analytic Maidenhead, UK).
Feces were homogenised in 1 to 2 volumes of water with the sample and homogenate weight recorded. Duplicate aliquots (ca 0.3) were taken from each sample and dispensed onto combustopads contained in combustocones (Can berra Packard Limited, Pangbourne, UK). When dry, these samples were combusted using a Packard Tri-Carb 306 Automatic Sample Oxidiser. The resultant ^14CO2 generated was collected by absorption in Carbo-Sorb® (8 mL; Can berra Packard Limited) to which Permafluor®E^+ scintillation fluid (10 mL; Can berra Packard Limited) was added.
For each rat, the carcass and gastro-intestinal tract with contents were solubilised in Soluene 350 (Canberra Packard). When dissolved, portions of the digest (ca 0.1 mL) were taken for liquid scintillation spectrometry. […]

Structure (SMILES): CCCC1(CCC)CCC2(CCN(CCCN(CC)CC)C2)CC1 [Compound II, [^14C] N,N,-diethyl-8,8-dipropyl-2-azaspiro[4,5]decane-2-propanamine dimaleate salt]
- Excretion of Radioactivity (Feces 72-96 hours, #1 male): 7.5
- Excretion of Radioactivity (Feces 72-96 hours, #2 male): 7.8
- Excretion of Radioactivity (Feces 72-96 hours, #3 male): 8.0
- Excretion of Radioactivity (Feces 72-96 hours, Mean): 7.8
- Excretion of Radioactivity (Feces 96-120 hours, #1 male): 5.5
- Excretion of Radioactivity (Feces 96-120 hours, #2 male): 4.1
- Excretion of Radioactivity (Feces 96-120 hours, #3 male): 6.4
- Excretion of Radioactivity (Feces 96-120 hours, Mean): 5.3
- Excretion of Radioactivity (Feces 120-144 hours, #1 male): 3.5
- Excretion of Radioactivity (Feces 120-144 hours, #2 male): 3.5
- Excretion of Radioactivity (Feces 120-144 hours, #3 male): 4.3
- Excretion of Radioactivity (Feces 120-144 hours, Mean): 3.8
- Excretion of Radioactivity (Feces 144-168 hours, #1 male): 3.0
- Excretion of Radioactivity (Feces 144-168 hours, #2 male): 3.2
- Excretion of Radioactivity (Feces 144-168 hours, #3 male): 3.1
- Excretion of Radioactivity (Feces 144-168 hours, Mean): 3.1
- Recovery of Radioactivity (GI Tract, at 168 hours, #1 male): 13.8 % administered dose
- Recovery of Radioactivity (GI Tract, at 168 hours, #2 male): 13.3 % administered dose
- Recovery of Radioactivity (GI Tract, at 168 hours, #3 male): 10.5 % administered dose
- Recovery of Radioactivity (GI Tract, at 168 hours, Mean): 12.5 % administered dose
- Recovery of Radioactivity (Total, 168 hour collection period, #1 male): 96.7 % administered dose
- Recovery of Radioactivity (Total, 168 hour collection period, #2 male): 103.0 % administered dose
- Recovery of Radioactivity (Total, 168 hour collection period, #3 male): 103.2 % administered dose
- Recovery of Radioactivity (Total, 168 hour collection period, Mean): 101.0 % administered dose
- Excretion of Radioactivity (Urine 0-6 hours, #1 male): 0.1
- Excretion of Radioactivity (Urine 0-168 hours, #1 male): 6.9
- Excretion of Radioactivity (Urine 0-168 hours, #2 male): 8.9
- Excretion of Radioactivity (Urine 0-168 hours, #3 male): 9.8
- Excretion of Radioactivity (Urine 0-168 hours, Mean): 8.5
- Excretion of Radioactivity (Urine 6-24 hours, #1 male): 0.4
- Excretion of Radioactivity (Urine 6-24 hours, #2 male): 0.5
- Excretion of Radioactivity (Urine 6-24 hours, #3 male): 0.5
- Excretion of Radioactivity (Urine 6-24 hours, Mean): 0.5
- Excretion of Radioactivity (Urine 24-48 hours, #1 male): 1.0
- Excretion of Radioactivity (Urine 24-48 hours, #2 male): 1.4
- Excretion of Radioactivity (Urine 24-48 hours, #3 male): 1.4
- Excretion of Radioactivity (Urine 24-48 hours, Mean): 1.3
- Excretion of Radioactivity (Urine 48-72 hours, #1 male): 1.2
- Excretion of Radioactivity (Urine 48-72 hours, #2 male): 1.5
- Excretion of Radioactivity (Urine 48-72 hours, #3 male): 1.7
- Excretion of Radioactivity (Urine 48-72 hours, Mean): 1.5
- Excretion of Radioactivity (Urine 72-96 hours, #1 male): 1.3
- Excretion of Radioactivity (Urine 72-96 hours, #2 male): 1.6
- Excretion of Radioactivity (Urine 72-96 hours, #3 male): 2.0
- Excretion of Radioactivity (Urine 72-96 hours, Mean): 1.6
- Excretion of Radioactivity (Urine 96-120 hours, #1 male): 1.2
- Excretion of Radioactivity (Urine 96-120 hours, #2 male): 1.5
- Excretion of Radioactivity (Urine 96-120 hours, #3 male): 1.6
- Excretion of Radioactivity (Urine 96-120 hours, Mean): 1.4
- Excretion of Radioactivity (Urine 120-144 hours, #1 male): 0.9
- Excretion of Radioactivity (Urine 120-144 hours, #2 male): 1.3
- Excretion of Radioactivity (Urine 120-144 hours, #3 male): 1.3
- Excretion of Radioactivity (Urine 120-144 hours, Mean): 1.2
- Excretion of Radioactivity (Urine 144-162 hours, #1 male): 0.8
- Excretion of Radioactivity (Urine 144-162 hours, #2 male): 1.0
- Excretion of Radioactivity (Urine 144-162 hours, #3 male): 1.2
- Excretion of Radioactivity (Urine 144-162 hours, Mean): 1.0
- Dose remaining in the carcass (at 168 hours): ~13.5%
- Dose remaining in the gastro-intestinal tract (at 168 hours): ~12.5%
- Radioactive dose recovered in feces, mean (by 168 hours after dosing): 65.5%
- Radioactive dose recovered in urine, mean (by 168 hours after dosing): 8.5%
- Dose recovered in excreta and cage washings, mean (full 168 hour collection period): 75.0%
- Recovery of administered radioactive dose (total, range over animals, 168 hours): 96.7-103.2%
- Dose recovered in the excreta (up to 120 hours after dosing): ~66%
